Experimental data as given in article PMC12040169 (PLOS Biology, 2025).

Experiment: in vitro
Details: human, hela cells, % viability

Row | Compound | viability at 28.5 h, 10 µM
1 | C(=N\c1cccc2c(/N=C/c3c[nH]c4ccccc34)cccc12)/c1c[nH]c2ccccc12 [CBK260887] | 95.8%
2 | COc1ccc(NC(=O)c2c[nH]c3nc(C)ccc3c2=O)cc1 [CBK287816] | 88.4%
3 | CCN(CC(=O)Nc1c(F)cccc1F)S(=O)(=O)c1cccc(C#N)c1 [CBK306197] | 85.4%
4 | CCOC(=O)N1N=C(c2ccc(F)cc2)CC1(O)C(F)(F)F (stereo not shown) [CBK027156] | 111%
5 | O=c1c2c([nH]c3nc(COc4ccccc4)nn13)CCC2 [CBK288188] | 98%
6 | CCOC(=O)N1CCN(CC(=O)N2c3ccccc3CCc3ccccc32)CC1 [CBK268744G] | 111%
7 | CN1CCN(C(=O)CSc2nnc(COc3ccccc3)o2)CC1 [CBK268970] | 85.4%
8 | CCOC(=O)N1CCC(NC(=O)N2CCCCC2CO)CC1 (stereo not shown) [CBK155991] | 106%
9 | CC(O)CN(Cc1ccc(-c2ccccc2)cc1)Cc1ccc2c(c1)OCO2 (stereo not shown) [CBK286450] | 94.1%
10 | O=C(c1cscn1)N1CCCCC1c1nc2ccccc2[nH]1 (stereo not shown) [CBK283394] | 91%
11 | CC(C)(C)S(=O)(=O)c1ccc2nc3c(n2c1)CCCC3 [CBK006753] | 94.9%
12 | COc1ccc(CC(=O)N2CCCCC2c2cc(-c3ccc(F)cc3)cc(C)n2)cc1OC (stereo not shown) [CBK285858] | 98.8%
13 | Cc1n[nH]cc1-c1nsc(Nc2ccccc2)n1 [CBK113680] | 92.2%
14 | N#Cc1ccc(NC(=O)NCC2(N3CCOCC3)CCSC2)cc1 (stereo not shown) [CBK304546] | 89.5%
15 | CC(C)NC(=O)NC[C@H]1C[C@@H]2CCN1C[C@@H]2c1cc(C2CCCCC2)nn1C [CBK289107] | 90.8%
16 | C/C(=N\NC(=O)c1ccccc1I)c1cccc(N)c1 [CBK260935] | 107%
17 | COC(=O)[C@@H]1Cc2ncn(C(C)C)c2CN1C(=O)c1ccc(F)cc1 [CBK288990] | 80.6%
18 | O=S(=O)(c1ccc(Cl)s1)N1CCN(c2ccccc2Cl)CC1 [CBK045098] | 98%
19 | COc1cc(OC)c2c(c1)OCC1CON(C)C21 (stereo not shown) [CBK011446] | 95.6%
20 | Cc1c(F)cccc1CNCC1CCN(C(=O)OC(C)(C)C)CC1 [CBK056717] | 85.7%
21 | Cc1cc(C(=O)N2CCC(c3nnc(CN(C)C)n3C)CC2)ccc1F [CBK306748] | 95.5%
22 | Cc1cc(=O)oc2ccc(OCC(=O)Nc3ccc(S(=O)(=O)O)cc3)cc12 [CBK263185N] | 100%

Row | Compound | viability at 28.5 h, 10 µM
23 | CCn1cc(CN2CCCC(c3cc4cccnc4[nH]3)C2)c(C)n1 (stereo not shown) [CBK284701] | 89.2%
24 | Cc1ccc2cc(CN(Cc3ccc4c(c3)OCO4)Cc3nnnn3Cc3ccco3)c(=O)[nH]c2c1 [CBK108949] | 93.9%
25 | Cc1ncc(S(=O)(=O)N2CCC(OCc3ccncc3)C2)s1 (stereo not shown) [CBK305483] | 99.5%
26 | FC(F)(F)c1cccc(Nc2cncc(-c3cccs3)n2)c1 [CBK065750] | 125%
27 | CCC(=O)Nc1ccc(C(=O)N2CCN(c3ccccc3)CC2)cc1 [CBK307425] | 105%
28 | COCC(=O)N[C@H]1C[C@H]2C(=O)Nc3ccc(Br)cc3C(=O)N2C1 [CBK289357] | 97.6%
29 | COc1ccc([C@@]23CC[C@@H](NC(=O)Nc4ccccc4C#N)C[C@@H]2N(C)CC3)cc1OC [CBK047540T] | 96.1%
30 | Cn1cc(/C=C(\C(=O)O)C(C(=O)O)=C2C3CC4CC(C3)CC2C4)c2ccccc21 [CBK263749] | 96.5%
31 | CCCCNC(=O)NS(N)(=O)=O [CBK022990] | 109%
32 | O=C1CC(c2ccccc2)CC(=O)C1=CNCCN1CCOCC1 (stereo not shown) [CBK262522] | 94%
33 | COc1ccc(-c2cc(NCc3cc(OC)c(OC)c(OC)c3)ncn2)cc1 [CBK091184] | 90%
34 | COc1ccc(Cl)cc1NC(=O)NC(=O)C1CCN(CCOc2cccc3ccccc23)CC1 [CBK035116] | 90.9%
35 | COc1ccccc1NC(=O)COc1ccc(C)cc1[N+](=O)[O-] [CBK269724] | 81.6%
36 | Cc1nn(C)cc1S(=O)(=O)Nc1ccc2c(ccn2C)c1 [CBK282806] | 77.4%
37 | C=CCN1C(=O)CC2(C1=O)C(=O)N(CCCn1c(=O)c3c(ncn3C)n(C)c1=O)c1ccc(OC)cc12 (stereo not shown) [CBK075701] | 93.6%
38 | O=C(NC1CCNC1)c1cccc(S(=O)(=O)NCc2ccsc2)c1 (stereo not shown) [CBK306706] | 88%
39 | CCOC(=O)c1[nH]c2ccccc2c1NC(=O)CN1C(=O)CSC1=O [CBK160163] | 102%
40 | CC(=O)c1c(-c2cccc(C(=O)N(C)C3CCN(C)C3)c2)cnn1C (stereo not shown) [CBK306633] | 106%
41 | CS(=O)(=O)N(Cc1ccc(Cl)cc1)c1ccc(C(=O)Nc2cccnc2)cc1 [CBK263334] | 95.3%
42 | CN1C(C(=O)O)=CC(c2ccc(F)cc2)=NS1(=O)=O [CBK287016] | 97.7%
43 | S=C(NCCn1cc(Br)cn1)NCc1ccco1 [CBK266914] | 95.5%
44 | CC1CCCCN1CCCNC(=O)c1ccc(-c2nc(-c3ccc(C#N)cc3)cnc2N)cc1 (stereo not shown) [CBK107139] | 111%

Row | Compound | viability at 28.5 h, 10 µM
45 | O=C(CC1CCCCO1)Nc1cccc(Cn2ccnc2)c1 (stereo not shown) [CBK282204] | 90.6%
46 | COCC(=O)N(C)C(CO)c1cc(OC)ccc1Br (stereo not shown) [CBK304780] | 88.7%
47 | CC(C)NC(=O)c1cc(C2CN(Cc3ccc4ncccc4c3)CCO2)nc2ccccc12 (stereo not shown) [CBK285895] | 92.9%
48 | COCCn1c(CO)nnc1[C@H]1C[C@@H](NC(=O)c2cc(F)ccc2F)C1 [CBK307032] | 85.1%
49 | CC1Cc2ccccc2N1C(=O)c1nn(C)cc1I (stereo not shown) [CBK058268] | 97.3%
50 | CN(Cc1nccs1)C(=O)NC1CCN(Cc2cccc(O)c2)CC1 [CBK307657] | 96.7%
51 | Cc1nc(C)c(-c2csc(Nc3ccc(C(=O)O)c(O)c3)n2)s1 [CBK267263] | 101%
52 | Cc1ccn(CCNC(=O)C(C)Cc2cccs2)n1 (stereo not shown) [CBK281625] | 106%
53 | Cc1nc(CNCc2c(C(C)C)nn(C)c2N(C)C)cs1 [CBK305119] | 109%
54 | O=C(Cc1ccccn1)NC(Cc1cccs1)c1ccccn1 (stereo not shown) [CBK282243] | 93.1%
55 | O=C(COc1cccnc1)N1CCN(c2ncccn2)CC1 [CBK144521] | 86.5%
56 | COC(=O)c1cc(OC)c(OC)cc1NC(=O)C1CCC1C(=O)O (stereo not shown) [CBK057084] | 82.5%
57 | Cc1nn(CC(=O)N2CCCCC2C)c(=O)c2cc3occc3n12 (stereo not shown) [CBK283622] | 76.7%
58 | CN1CCN(NC(=O)c2cc(-c3ccc(Cl)cc3)[nH]n2)CC1 [CBK116553] | 90.8%
59 | Cn1ccnc1C1(O)CC2CCC(C1)N2C(=O)NC1CCCCC1 (stereo not shown) [CBK284049] | 88.5%
60 | CS(=O)(=O)Nc1ccc(C2=NN(S(C)(=O)=O)C(c3ccc4nccnc4c3)C2)cc1 (stereo not shown) [CBK267546] | 83.1%
61 | Cc1ccc(C)c(-c2nn(-c3ccccc3)cc2/C=C2\SC(=S)N(CC(=O)O)C2=O)c1 [CBK264541] | 98.4%
62 | c1cc(-c2n[nH]c(C3CCNCC3)n2)ccn1 [CBK104676C] | 85.2%
63 | Cc1cnc2[nH]c(C3CCN(C(=O)c4scnc4C)CC3)cc2c1 [CBK284753] | 96.7%
64 | COCc1cccc(-c2nccnc2OCC(=O)OC)c1 [CBK106976] | 98.7%
65 | O=C(NCCN1CCCCC1)C1CC(=O)N(Cc2ccncc2)C1 (stereo not shown) [CBK306629] | 100%
66 | CN1CCN(C(=O)CN(Cc2ccc(Cl)cc2)S(=O)(=O)c2ccc(Br)cc2)CC1 [CBK265771] | 113%

Row | Compound | viability at 28.5 h, 10 µM
67 | OC(CN1CCC(O)(c2ccc3c(c2)OCO3)CC1)c1ccc2c(c1)CCC2 (stereo not shown) [CBK286326] | 99.6%
68 | Cc1c(C(=O)O)sc(S(=O)(=O)N2CCN(C(=O)Cc3ccccc3)CC2)c1C(=O)O [CBK297148] | 96.2%
69 | CCNC(=O)N1CCN(CCCC(O)c2ccc(F)cc2)CC1 (stereo not shown) [CBK025001C] | 118%
70 | COc1ccc2c(c1OC)C(=O)N1C2SC(C)(C)C1C(=O)O (stereo not shown) [CBK011479] | 98.9%
71 | c1cnc2c(OCc3nc4ccccc4[nH]3)cccc2c1 [CBK268556] | 74.6%
72 | NC(=O)CN1CC2(CCN(CCc3c[nH]c4ccccc34)CC2)c2ccccc21 [CBK126784] | 93.3%
73 | Cc1ccc(-n2ncc3c(Nc4c(C)n(C)n(-c5ccccc5)c4=O)ncnc32)c(C)c1 [CBK294449] | 82.6%
74 | CC(=O)C1=C(O)C(=O)N(CCCC(=O)O)C1c1cccc([N+](=O)[O-])c1 (stereo not shown) [CBK263801] | 103%
75 | CC1CCN(C(=O)CN2C(=O)N3CCN=C3c3ccccc32)CC1 [CBK283946] | 93.6%
76 | Cc1cccc(=O)n1CCCn1cc(C2CCCNC2)nn1 (stereo not shown) [CBK306946] | 91%
77 | CN1CC(=O)N2CCOC(C2)c2cccc(n2)NC(=O)C/C=C/CC2(CCNCC2)C1=O (stereo not shown) [CBK292053] | 102%
78 | O=C1CCC(C(=O)N2CCN(S(=O)(=O)c3ccccc3Cl)CC2)N1 (stereo not shown) [CBK304561] | 77.6%
79 | OC[C@H]1O[C@@H](n2cnc3cncnc32)C[C@H]1O [CBK201243] | 113%
80 | CSc1nc2ccc(NC(=O)CSc3nnnn3-c3ccccc3)cc2s1 [CBK263549] | 88.3%
81 | COc1ccc(Cn2nnnc2C(CC(C)C)N2CCC(C(N)=O)CC2)cc1 (stereo not shown) [CBK084783] | 90%
82 | Cc1noc(C2=CC=CN3C2=NNC32CCNCC2)n1 [CBK288058] | 91%
83 | O=C(O)c1cccc(N2N=C(c3ccccc3)CC2=O)c1 [CBK286966] | 96.5%
84 | O=C(Nc1ccc2c(c1)C(=O)NC2=O)c1ccccc1 [CBK270384] | 86.5%
85 | Nc1ncc(-c2ccoc2)nc1N1CCN(CCO)CC1 [CBK063428] | 98.8%
86 | COC(=O)Nc1sc2c(c1C(=O)N1CCOCC1)CCC(C)C2 (stereo not shown) [CBK307413] | 95%

Same assay, conditions: human, hela cells, % viability, bulk resorufin, single well

Row | Compound | viability at 28.5 h, 10 µM
87 | O=C(Cn1cc(/C=C2/C(=O)NC(=S)N(c3ccc(Cl)cc3)C2=O)c2ccccc21)Nc1ccccc1 [CBK263535] | 98.4%
88 | CC(C)(C)OC(=O)N1CCC2(CC1)OCc1cc(-c3cccc(OCC(=O)Nc4ccccc4)c3)ccc1O2 [CBK105255] | 99.6%
